Target: HLA-E*0103 (Homo sapiens, UniProt P13747)
Test: HLA-E peptide refolding into monomer complexes
Assay type: biochemical

YLLPAIVHI
refolding of HLA-E*0103/peptide: successfully refold HLA-E*0103/peptide into stable monomer complexes

From patent US20200291127A1, “ANTIBODIES AND METHODS OF USE THEREOF” (AbeXXa Biologics, Inc., priority 2020, published 2020)
